According to patent US5079357A, “Derivatives of penem” (Daiichi Pharmaceutical Co., Ltd., priority 1985, dated 1992):
In brackets after ≈: the same amount, converted by molar mass.

Experiments:
Test in all cases: antibacterial activity (MIC), broth dilution method
Format in all cases: cell-based
E. coli, NIHJ = settings: Escherichia coli, Muller-Hinton broth, 10^5 /ml bacteria, 37° C., 18 hours, read-out: Minimal Inhibitory Concentration (MIC)
Description: (§1) On some of the compounds according to the present invention, the antibacterial activity was determined by broth dilution method in Muller-Hinton broth in which 10^5 /ml of bacteria were seaded and incubated at 37° C. for 18 hours.

Ent. cloacae, 03400 = settings: Enterobacter cloacae, Muller-Hinton broth, 10^5 /ml bacteria, 37° C., 18 hours, read-out: Minimal Inhibitory Concentration (MIC)
Description: as §1

Ps. aeruginosa, 32233 = settings: Pseudomonas aeruginosa, Muller-Hinton broth, 10^5 /ml bacteria, 37° C., 18 hours, read-out: Minimal Inhibitory Concentration (MIC)
Description: as §1

S. aureus, 209P = settings: Staphylococcus aureus, Muller-Hinton broth, 10^5 /ml bacteria, 37° C., 18 hours, read-out: Minimal Inhibitory Concentration (MIC)
Description: as §1

Ser. Marcescens, 10104 = settings: Serratia marcescens, Muller-Hinton broth, 10^5 /ml bacteria, 37° C., 18 hours, read-out: Minimal Inhibitory Concentration (MIC)
Description: as §1

Row | Compound | MIC (E. coli, NIHJ) | MIC (Ent. cloacae, 03400) | MIC (Ps. aeruginosa, 32233) | MIC (S. aureus, 209P) | MIC (Ser. Marcescens, 10104)
1 | CC(O)C1C(=O)N2C(C(=O)[O-])=C(SC3CCn4c[n+](C)cc43)SC12 (single isomer, unassigned) [B] | 0.1 µg/mL (≈ 0.272 µM) | 0.2 µg/mL (≈ 0.544 µM) | 0.78 µg/mL (≈ 2.12 µM) | ≤ 0.05 µg/mL | 0.78 µg/mL (≈ 2.12 µM)
2 | CC(O)C1C(=O)N2C(C(=O)O)=C(SC3Cc4nncn4C3)SC12 [A, (5R, 6S, 8R)-6-(1-hydroxyethyl)-2-[(6,7-dihydro-5H-pyrrolo[(2,1-c]-1,2,4-triazol-6-yl)thio]-2-penem-3-carboxylic acid] | ≤ 0.05 µg/mL | 0.39 µg/mL (≈ 1.1 µM) | 25 µg/mL (≈ 70.5 µM) | ≤ 0.05 µg/mL | 0.78 µg/mL (≈ 2.2 µM)
3 | CC(O)C1C(=O)N2C(C(=O)O)=C(SCCOC(N)=O)SC12 (stereo not drawn) [Sch 34343, reference compound] | 0.39 µg/mL (≈ 1.17 µM) | 0.78 µg/mL (≈ 2.33 µM) | 100 µg/mL (≈ 299 µM) | 0.1 µg/mL (≈ 0.299 µM) | 3.13 µg/mL (≈ 9.36 µM)
